According to PubChem BioAssay AID248 (DTP/NCI, 2004):
Values joined by “and” are separate entries in the source; they are usually repeats but may differ in a detail not shown here. Equal values may be shown once. Toxic doses and inconclusive results are not listed. Rule as the data show it: active = T/C of 150% or more; inactive = T/C below 125%.

System: L1210 leukemia ip in BDF1 mice, survival T/C
Test: NCI In Vivo Anticancer Drug Screen. Data for tumor model L1210 Leukemia (intraperitoneal) in B6D2F1 (BDF1) mice
Details: endpoint: mean survival time, higher = longer survival
Method in brief: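 In this screen, tumor-bearing mice given compound are compared to those given vehicle, and their survival values are reported as a treated-to-control quotient.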

[1] = dose: 100.0 mg/kg/injection, schedule: Q01DX009 (ip), vehicle: saline with Tween-80
[2] = dose: 100.0 mg/kg/injection, schedule: Q04DX003 (ip), vehicle: saline with Tween-80
[3] = dose: 200.0 mg/kg/injection, schedule: Q01DX009 (ip), vehicle: saline with Tween-80
[4] = dose: 200.0 mg/kg/injection, schedule: Q04DX003 (ip), vehicle: saline with Tween-80
[5] = dose: 400.0 mg/kg/injection, schedule: Q01DX009 (ip), vehicle: saline with Tween-80
[6] = dose: 200.0 mg/kg/injection, schedule: Q01DX009 (ip), vehicle: Klucel (hydroxypropylcellulose) (HPC)
[7] = dose: 100.0 mg/kg/injection, schedule: Q04DX002 (ip), vehicle: Klucel (hydroxypropylcellulose) (HPC)
[8] = dose: 200.0 mg/kg/injection, schedule: Q04DX002 (ip), vehicle: Klucel (hydroxypropylcellulose) (HPC)
[9] = dose: 400.0 mg/kg/injection, schedule: Q04DX002 (ip), vehicle: Klucel (hydroxypropylcellulose) (HPC)
[10] = dose: 100.0 mg/kg/injection, schedule: Q01DX001 (ip), vehicle: Klucel (hydroxypropylcellulose) (HPC)
[11] = dose: 100.0 mg/kg/injection, schedule: Q01DX009 (ip), vehicle: Klucel (hydroxypropylcellulose) (HPC)
[12] = dose: 100.0 mg/kg/injection, schedule: Q04DX003 (ip), vehicle: Klucel (hydroxypropylcellulose) (HPC)
[13] = dose: 200.0 mg/kg/injection, schedule: Q01DX001 (ip), vehicle: Klucel (hydroxypropylcellulose) (HPC)
[14] = dose: 200.0 mg/kg/injection, schedule: Q04DX003 (ip), vehicle: Klucel (hydroxypropylcellulose) (HPC)
[15] = dose: 400.0 mg/kg/injection, schedule: Q01DX001 (ip), vehicle: Klucel (hydroxypropylcellulose) (HPC)
[16] = dose: 400.0 mg/kg/injection, schedule: Q01DX009 (ip), vehicle: Klucel (hydroxypropylcellulose) (HPC)
[17] = dose: 400.0 mg/kg/injection, schedule: Q04DX003 (ip), vehicle: Klucel (hydroxypropylcellulose) (HPC)
[18] = dose: 100.0 mg/kg/injection, schedule: Q01DX009 (ip), vehicle: saline
[19] = dose: 200.0 mg/kg/injection, schedule: Q01DX009 (ip), vehicle: saline
[20] = dose: 400.0 mg/kg/injection, schedule: Q01DX009 (ip), vehicle: saline
[21] = dose: 50.0 mg/kg/injection, schedule: Q01DX009 (ip), vehicle: saline

Measured: T/C

CC(C)(C)c1ccc(OC(=S)N2CCOCC2)cc1
inactive: [1] 98 % of control | [2] 96 % of control | [3] 107 % of control | [4] 96 % of control | [5] 102 % of control | dose: 400.0 mg/kg/injection, schedule: Q04DX003 (ip), vehicle: saline with Tween-80 93 % of control

Cn1[nH]nnc1=S
inactive: [2] 97 % of control | [4] 112 % of control

O=C(N/N=C/C1CCCCC1)C(=O)N/N=C/C1CCCCC1
inactive: dose: 12.5 mg/kg/injection, schedule: Q01DX009 (ip), vehicle: Klucel (hydroxypropylcellulose) (HPC) 90 % of control | dose: 25.0 mg/kg/injection, schedule: Q01DX009 (ip), vehicle: Klucel (hydroxypropylcellulose) (HPC) 96 % of control and 89 % of control | [6] 89 % of control

O=P(OCc1ccccc1)(N(CCCl)CCCl)N1CCN(Cc2ccccc2)CC1 (stereo not given)
inactive: dose: 10.0 mg/kg/injection, schedule: Q01DX Z (ip), vehicle: saline 93 % of control | dose: 30.0 mg/kg/injection, schedule: Q01DX Z (ip), vehicle: saline 90 % of control | dose: 100.0 mg/kg/injection, schedule: Q01DX Z (ip), vehicle: saline 95 % of control

CCCNC(=O)OC1CCS(=O)(=O)C1 (stereo not given)
inactive: [7] 95 % of control | [8] 100 % of control | [9] 95 % of control

CCOc1ccc(/C=N/NC(=O)c2ccccc2NC(=O)c2ccccc2Cl)cc1OC
inactive: [10] 93 % of control | [11] 97 % of control and 90 % of control | [7] 95 % of control and 103 % of control | [12] 92 % of control | [13] 98 % of control | [6] 90 % of control and 91 % of control | [8] 108 % of control and 92 % of control | [14] 97 % of control | [15] 93 % of control | [16] 94 % of control and 88 % of control | [9] 97 % of control and 92 % of control | [17] 92 % of control

O=[N+]([O-])c1cc([N+](=O)[O-])c2nc3ccccn3c2c1
inactive: [1] 96 % of control | [3] 102 % of control | [5] 107 % of control

CC(=O)COc1ccccc1
inactive: [11] 108 % of control | [12] 100 % of control | [6] 110 % of control | [14] 97 % of control | [16] 108 % of control | [17] 95 % of control

CCCCCCCCCCCCCCn1cnc2ncnc(Cl)c21
inactive: dose: 12.5 mg/kg/injection, schedule: Q01DX005 (ip), vehicle: other 104 % of control | dose: 25.0 mg/kg/injection, schedule: Q01DX005 (ip), vehicle: other 104 % of control | dose: 50.0 mg/kg/injection, schedule: Q01DX005 (ip), vehicle: other 103 % of control | dose: 100.0 mg/kg/injection, schedule: Q01DX005 (ip), vehicle: other 101 % of control | dose: 200.0 mg/kg/injection, schedule: Q01DX005 (ip), vehicle: other 96 % of control

COC(=O)C(C)C1(O)CCCCC1 (stereo not given)
inactive: [18] 96 % of control | [19] 93 % of control | [20] 91 % of control

N#CC(OC(=O)c1ccccc1)c1ccccc1 (stereo not given)
inactive: dose: 75.0 mg/kg/injection, schedule: Q01DX001 (ip), vehicle: other 104 % of control | dose: 150.0 mg/kg/injection, schedule: Q01DX001 (ip), vehicle: other 105 % of control

c1ccc2nc3c(cc2c1)NCC3
inactive: [10] 95 % of control | [13] 97 % of control | [15] 109 % of control

S=c1cc[nH]c2[nH]ncc12
inactive: dose: 100.0 mg/kg/injection, schedule: Q04DX002 (ip), vehicle: DMSO 94 % of control | dose: 200.0 mg/kg/injection, schedule: Q04DX002 (ip), vehicle: DMSO 97 % of control

COC(=N)C/C=C/CC(=N)OC
inactive: [18] 94 % of control | [19] 94 % of control | [20] 92 % of control

Cc1ccc(S(=O)(=O)OCC(CO)(CO)[N+](=O)[O-])cc1
inactive: [21] 90 % of control | [18] 92 % of control | dose: 100.0 mg/kg/injection, schedule: Q04DX003 (ip), vehicle: saline 97 % of control | [19] 90 % of control | dose: 200.0 mg/kg/injection, schedule: Q04DX003 (ip), vehicle: saline 88 % of control

CC1(C)N=C(N)N=C(N)N1c1ccc(OCC(=O)N2CCOCC2)c(Cl)c1
inactive: dose: 12.5 mg/kg/injection, schedule: Q01DX009 (ip), vehicle: saline 98 % of control | dose: 25.0 mg/kg/injection, schedule: Q01DX009 (ip), vehicle: saline 98 % of control | [21] 95 % of control | [18] 101 % of control
